Like-named read-outs stand apart in the source and are kept apart here.
Assay: Tissue distribution of THP, DHC and protopine in rat tissues after gastric gavage administration (HPLC-UV, non-compartmental analysis)
Type: in vivo, Wistar male rats
Details: male, Wistar, po, 4.52 mg/kg; for AUC(0-t): read-out: AUC0–24 h of protopine; for Cmax: read-out: Cmax of protopine; for MRT: read-out: MRT of protopine; for Tmax: read-out: Tmax of protopine
Procedure: The experimental protocol was approved by the University's Animal Ethics Committee. […] Rats had unlimited access to water. Standard food was given until 12 h before the experiments. Rhizoma Corydalis was processed according to Pharmacopoeia of Chinese Medicine and National Guideline of Traditional Chinese Medicinal Plants Processing. Briefly, fresh Rhizoma Corydalis was boiled in water till the pith turn light brown color. Cooked rhizome was sliced into pieces (4 mm, diameter) and dried at 25 °C. Dried slices were mixed with edible vinegar (100:20, rhizome/vinegar, w/v) or yellow wine (100:10, rhizome/wine, w/v) and the slices allowed to completely absorb the vinegar or wine. The soaked slices were then stir-fried in a metallic pan over a low flame till they were completely dry. The processed Rhizoma Corydalis was added with 70% ethanol (1:30 w/v) and sonicated for 1 h at room temperature. The extract was then concentrated to remove the ethanol residue and stored at 4 °C for further use. […] The ethanol extract of the unprocessed Rhizoma Corydalis and THP, DHC and protopine pure compound were used as the controls. Three hundred and sixty healthy rats were used in total and are divided into six groups (Group 1-6, sixty rats per group). Drugs were administrated by gastric gavage method. In order to keep the dose of THP, DHC and protopine constant in each group, the amount of ethanol extract of Rhizoma Corydalis administrated was normalized based on the dose of protopine pure compound used. The dose of THP and DHC pure compound administrated was same with that in the ethanol extract of Rhizoma Corydalis. The details were listed below. […] Rats were administrated with the 70% ethanol extract of unprocessed Rhizoma Corydalis at a dose of 17.75 g extract/kg body weight. […] Rats received the extract of vinegar-processed Rhizoma Corydalis at a dose of 15 g extract/kg rat body weight. Group 3: Rats were administrated with the extract of wine processed Rhizoma Corydalis at a dose of 15.78 g extract/kg body weight. […] Rats received THP pure compound at a dose of 6.45 mg/kg body weight. Group 6: Rats were administrated 26.10 mg of DHC pure compound/kg body weight. […] Brian tissue was further dissected into six parts: cerebrum, cerebellum, diencephalons, brain stem, hippocampus and striatum. All the tissue samples were rinsed with ice-old saline and stored at -20 °C until extraction. Tissue samples were homogenized in three volumes of ice-cold biological saline and centrifuged for 10 min at 10,000 g and 4 °C. An aliquot of the supernatant (0.5 mL) was collected. Liquid-liquid extraction was used to extract THP, DHC and protopine. One hundred microliter of 1.0 μg/mL nuciferin (internal standard) was mixed with 0.5 mL aliquots of the supernatant. […] The supernatant was evaporated completely under the nitrogen stream in a 60 °C water bath. The residue was redissolved in 100 μL of methanol. A CoMetro HPLC system (CoMetro Technology Ltd, South […], NJ, USA) with 6000 PVW detector UV-VIS detector was used. […] Ltd., Liaoning, China). Other chromatographic conditions were: column temperature, 35 °C; mobile phase, acetonitrile-0.1% phosphoric acid (pH 3.0) (30:70 v/v); flow rate, 1 mL/min; wavelength, 280 nm. Pharmacokinetic parameters were estimated by non-compartmental analysis using Equiv Test/PK (Statistical Solutions Ltd., Saugus, MA, USA). The maximum concentration (Cmax) and the time to reach the maximum concentration (Tmax) were directly obtained from the observed value. All data were represented as mean ± SD. Comparison of values between groups was performed using one-way ANOVA followed by Tukey's test for comparisons among four groups.

[1] = diencephalon, rat diencephalons

AUC(0-t) [1]: 3180 ± 70 ng·h/mL
Cmax [1]: 1310 ± 270 ng/mL
MRT [1]: 4.89 ± 0.01 h
Tmax [1]: 2.07 ± 0.21 h
AUC(0-t) (rat brain stem): 2020 ± 420 ng·h/mL
Cmax (rat brain stem): 820 ± 170 ng/mL
MRT (rat brain stem): 3.9 ± 0.14 h
Tmax (rat brain stem): 2.2 ± 0.01 h
AUC(0-t) (rat cerebellum): 3800 ± 830 ng·h/mL
Cmax (rat cerebellum): 1560 ± 320 ng/mL
MRT (rat cerebellum): 4.86 ± 0.08 h
Tmax (rat cerebellum): 2.08 ± 0.01 h
AUC(0-t) (rat cerebrum): 3650 ± 780 ng·h/mL
Cmax (rat cerebrum): 1350 ± 270 ng/mL
MRT (rat cerebrum): 3.93 ± 0.06 h
Tmax (rat cerebrum): 2.1 ± 0.8 h
AUC(0-t) (rat heart): 6230 ± 1560 ng·h/mL
Cmax (rat heart): 1500 ± 450 ng/mL
MRT (rat heart): 5.93 ± 0.02 h
Tmax (rat heart): 5.28 ± 0.42 h
AUC(0-t) (rat hippocampus): 3660 ± 810 ng·h/mL
Cmax (rat hippocampus): 1560 ± 310 ng/mL
MRT (rat hippocampus): 5.23 ± 0.1 h
Tmax (rat hippocampus): 2.09 ± 0.04 h
AUC(0-t) (rat kidney): 13400 ± 2650 ng·h/mL
Cmax (rat kidney): 4420 ± 1310 ng/mL
MRT (rat kidney): 5.53 ± 0.04 h
Tmax (rat kidney): 5.13 ± 0.04 h
AUC(0-t) (rat liver): 27800 ± 6980 ng·h/mL
Cmax (rat liver): 6670 ± 1970 ng/mL
MRT (rat liver): 5.69 ± 0.03 h
Tmax (rat liver): 5.09 ± 0.68 h
AUC(0-t) (rat lung): 50200 ± 12500 ng·h/mL
Cmax (rat lung): 11200 ± 3310 ng/mL
MRT (rat lung): 5.85 ± 0.04 h
Tmax (rat lung): 5.22 ± 0.47 h
AUC(0-t) (rat spleen): 35000 ± 8180 ng·h/mL
Cmax (rat spleen): 7420 ± 2220 ng/mL
MRT (rat spleen): 5.65 ± 0.03 h
Tmax (rat spleen): 5.22 ± 0.05 h
AUC(0-t) (rat striatum): 6420 ± 1520 ng·h/mL
Cmax (rat striatum): 1950 ± 400 ng/mL
MRT (rat striatum): 6.57 ± 0.43 h
Tmax (rat striatum): 2.07 ± 0.08 h
Compound: CN1CCc2cc3c(cc2C(=O)Cc2ccc4c(c2C1)OCO4)OCO3 [protopine]

Source: article PMC6268586, “Effect of Wine and Vinegar Processing of Rhizoma Corydalis on the Tissue Distribution of Tetrahydropalmatine, Protopine and Dehydrocorydaline in Rats” (Molecules, 2012)
